Source: US9961898B2, “Method for controlling plant disease” (SUMITOMO CHEMICAL COMPANY, LIMITED, priority 2008, dated 2018)

Assays:
Assay type in all cases: in vivo
Pythium disease = assay: Seed treatment, emergence of corn seedlings in Pythium-infested soil (tray test); settings: 14 days 10° C. then 11 days 18° C.; for Ratio of sound non-transgenic seeds: non-transgenic corn seeds; for Ratio of sound transgenic seeds: transgenic corn seeds (glyphosate tolerance, rootworm resistance)
Method: Ethaboxam, formulated in a flowable concentrate for seed treatment use, was added to water so that the total slurry applied to a specified amount of seed would deliver a designated concentration of ethaboxam per 100 KG seed. The prepared slurry was applied to non-transgenic corn seeds and to transgenic corn seeds having both glyphosate tolerance and rootworm resistance. In a tray, Kimpack (absorbent cellulose wadding, trademark of Kimberly-Clark) was placed and wetted. Each of the corn seed types of each treatment rate was placed on the Kimpack and covered with soil, which is a 1:1 mixture of Pythium-infested field soil and sand. After keeping the soil saturated for 14 days at 10° C., the trays were transferred to 18° C. for 11 days.

Pythium ultimum = assay: Seed treatment, emergence of cotton under field conditions; settings: for Ratio of sound non-transgenic seeds: non-transgenic cotton seeds; for Ratio of sound transgenic seeds: transgenic cotton seeds (Bacillus thuringiensis endotoxins, glyphosate tolerant)
Method: (§1) Ethaboxam, formulated in a flowable concentrate for seed treatment use, was added to water so that the total slurry applied to a specified amount of seed would deliver a designated concentration. The prepared slurry was applied to non-transgenic corn seeds and transgenic corn seeds having both glyphosate tolerance and rootworm resistance. […] Emergence (%) was determined at 7 and 14 DAP and recorded in Table 2.
The same procedure as Test example 2 was conducted, except that cotton seeds which express Bacillus thuringiensis endotoxins and tolerant against glyphosate, were used in place of corn seeds. Disease incited by Pythium ultimum is reduced of the […]. The transgenic cotton source provided higher field stand establishment of seedlings when compared to the non-transgenic cotton. (Table 3).

Pythium spp. = assay: Seed treatment, emergence of corn under field conditions; settings: for Ratio of sound non-transgenic seeds: non-transgenic corn seeds; for Ratio of sound transgenic seeds: transgenic corn seeds (glyphosate tolerance, rootworm resistance)
Method: as §1

In the case of `CCNc1nc(CC)c(C(=O)NC(C#N)c2cccs2)s1` (centres unmarked) [ethaboxam, N-(cyano-2-thienylmethyl)-4-ethyl-2-(ethylamino)-5-thiazolecarboxamide], the “Ratio of sound non-transgenic seeds” value (Pythium disease; ethaboxam 0.05 gai/100 kg seed) is reported as 39%, the “Ratio of sound non-transgenic seeds” value (Pythium disease; ethaboxam 0.1 gai/100 kg seed) is reported as 41% and the “Ratio of sound non-transgenic seeds” value (Pythium disease; ethaboxam 0.5 gai/100 kg seed) is reported as 47%. The “Ratio of sound non-transgenic seeds” value (Pythium disease; ethaboxam 1.0 gai/100 kg seed) was 59%, the “Ratio of sound transgenic seeds” value (Pythium disease; ethaboxam 0.05 gai/100 kg seed) was 57% and the “Ratio of sound transgenic seeds” value (Pythium disease; ethaboxam 0.1 gai/100 kg seed) was 59%. The “Ratio of sound transgenic seeds” value (Pythium disease; ethaboxam 0.5 gai/100 kg seed) was 65%, the “Ratio of sound transgenic seeds” value (Pythium disease; ethaboxam 1.0 gai/100 kg seed) was 67% and the “Ratio of sound non-transgenic seeds” value (Pythium ultimum; ethaboxam 0.05 gai/100 kg seed) was 1.75%. For the same compound, the “Ratio of sound non-transgenic seeds” value (Pythium ultimum; ethaboxam 0.1 gai/100 kg seed) was 6.25%, the “Ratio of sound non-transgenic seeds” value (Pythium ultimum; ethaboxam 0.5 gai/100 kg seed) was 10.25% and the “Ratio of sound non-transgenic seeds” value (Pythium ultimum; ethaboxam 1.0 gai/100 kg seed) was 7%. For the same compound, the “Ratio of sound non-transgenic seeds” value (Pythium ultimum; ethaboxam 5 gai/100 kg seed) was 9.5%, the “Ratio of sound non-transgenic seeds” value (Pythium ultimum; ethaboxam 10 gai/100 kg seed) was 6.5% and the “Ratio of sound transgenic seeds” value (Pythium ultimum; ethaboxam 0.05 gai/100 kg seed) was 7.5%. For the same compound, the “Ratio of sound transgenic seeds” value (Pythium ultimum; ethaboxam 0.1 gai/100 kg seed) was 6.25%, the “Ratio of sound transgenic seeds” value (Pythium ultimum; ethaboxam 0.5 gai/100 kg seed) was 6% and the “Ratio of sound transgenic seeds” value (Pythium ultimum; ethaboxam 1.0 gai/100 kg seed) was 14.25%. For the same compound, the “Ratio of sound transgenic seeds” value (Pythium ultimum; ethaboxam 5 gai/100 kg seed) was 8.5%, the “Ratio of sound transgenic seeds” value (Pythium ultimum; ethaboxam 10 gai/100 kg seed) was 17.75% and the “Ratio of sound non-transgenic seeds” value (Pythium spp.; ethaboxam 0.05 gai/100 kg seed) was 74.5%. The “Ratio of sound non-transgenic seeds” value (Pythium spp.; ethaboxam 0.1 gai/100 kg seed) was 78.25%, the “Ratio of sound non-transgenic seeds” value (Pythium spp.; ethaboxam 0.5 gai/100 kg seed) was 76.25% and the “Ratio of sound non-transgenic seeds” value (Pythium spp.; ethaboxam 1.0 gai/100 kg seed) was 77.75%. For the same compound, the “Ratio of sound non-transgenic seeds” value (Pythium spp.; ethaboxam 5 gai/100 kg seed) was 81%, the “Ratio of sound non-transgenic seeds” value (Pythium spp.; ethaboxam 10 gai/100 kg seed) was 76.25% and the “Ratio of sound transgenic seeds” value (Pythium spp.; ethaboxam 0.05 gai/100 kg seed) was 86.25%. The “Ratio of sound transgenic seeds” value (Pythium spp.; ethaboxam 0.1 gai/100 kg seed) was 85%, the “Ratio of sound transgenic seeds” value (Pythium spp.; ethaboxam 0.5 gai/100 kg seed) was 89.25% and the “Ratio of sound transgenic seeds” value (Pythium spp.; ethaboxam 1.0 gai/100 kg seed) was 87.75%. The “Ratio of sound transgenic seeds” value (Pythium spp.; ethaboxam 5 gai/100 kg seed) was 86% and the “Ratio of sound transgenic seeds” value (Pythium spp.; ethaboxam 10 gai/100 kg seed) was 88.5%.
